Assay [1] deals with planktonic oral bacterial species (S. sobrinus, S. gordonii, A. actinomycetemcomitans, A. viscosus, mixed cultures). Put plainly: Growth inhibition, summary statements over the single, co- and mixed cultures tested. It counts as cell-based, oral bacteria. The procedure: (§1) Single species of Streptococcus gordonii (S. gordonii, S.g) strain V288 (ATCC #35105), Streptococcus sobrinus (S. sobrinus, S.$) strain SL1[CCM 6070, CNCTC 9/89] (ATCC #33478), or Aggregatibacter actinomycetemcomitans were analyzed. Also, a mixed culture containing Actinomyces viscosus (A. viscosus, A.v) strain (ATCC, #43146), Lactobacillus casei (L. casei, L.c) strain (ATCC #334), Streptococcus oralis (S. oralis, S. o) strain (ATCC #35037), Fusobacterium nucleatum (F. nucleatum, F. n) strain (ATCC #10953), and Veilonella parvula (V. parvula, V. p) strain (ATCC #17745) was also analyzed for growth inhibition/toxicity activity. Bacteria were cultured overnight in approximately 20 ml of BHI broth (BD, cat #237500) or maintained in a specialized complex modified BHI II medium in a continuous culture chemostat at 37° C. respectively. The following day, the OD610 were determined and solutions diluted to an OD610 of 0.2 or 0.1 respectively for the assay.
(§2) Triclosan (positive control) was prepared as a 10% stock in 100% EtOH and 3 fold serial dilutions were performed in 100% EtOH. An appropriate amount of the diluted samples was then transferred into a 96 well clear plate such that the resulting final concentration of the test samples ranged from either a 2 mM or 4 mM (highest concentration) to 0.0078 mM or 0.0156 mM (lowest concentration respectively) in 2% DMSO in 100 μl media per well. Triclosan (TCN) ranged from 0.01% to 1.67e-6% in 1% EtOH. For Zinc acetate, in order to mimic the 2:1 molar ratio (ligand:Zinc) in the Naringin:Zinc complex, the final concentration ranged from 0.7 mM to 0.0027 mM for samples with 2 mM as the highest concentration and 1.33 mM to […] for samples with 4 mM as the highest concentration in 2% DMSO. Next, 100 μl of bacterial culture at OD610 0.2 were introduced to the wells with the test samples. The wells were thoroughly mixed and incubated at 37° C. overnight. The plates were read using an Envision plate reader (PerkinElmer, Waltham, Mass.) at 610 nm.
(§3) The IC50 for the complex, Product 5, was determined for Streptococcus gordonii (S. gordonii), Streptococcus sobrinus (S. sobrinus), Aggregatibacter actinomycetemcomitans (A. actinomycetemcomitans), and also for the mixed bacterial culture. […] Triclosan (TCN) was included as a positive control for bacterial inhibition.
(§4) Further characterization was performed on planktonic oral microbes; Streptococcus sobrinus (Cariongenic—strain-SL1[CCM 6070, CNCTC 9/89] (ATCC cat. #33478), Streptococcus gordonii (Arginolytic—strain V288 (ATCC cat. #35105), Actinomyces viscosus) as well late colonizer (Gram −), pathogenic Aggregatibacter actinomycetemcomitans. All microbes were grown in their respective culture media: Streptococcus sobrinus and Streptococcus gordonii in BHI broth (BD, cat #237500), Aggregatibacter actinomycetemcomitans in BHI broth supplemented with 0.5% Yeast Extract (BD, cat #210941) and Actinomyces viscosus in Trypticase Soy Broth (BD, cat #211768) supplemented with 0.5% Yeast Extract (BD, cat #210941). Bacteria were cultured overnight in 37° C., 5% CO2 in approximately 20 ml of the appropriate culture broth. The following day, the OD610 was determined and solutions were diluted to 0.2 for the assay.
(§5) Triclosan (positive control) was prepared as a 10% stock in 100% EtOH and 3 fold serial dilutions were done in 100% EtOH. […] For Naringin+Zinc combination, while the highest total overall concentration was 2 mM, the exact concentration was Naringin (1.3 mM) and Zinc Acetate (0.7 mM) due to the compositions 2:1 molar ratio. For Zinc Acetate, in order to mimic the 2:1 ratio (ligand:Zinc) composition as in the complex, the final concentration ranged from 0.7 mM to 0.0027 mM in 2% DMSO.
(§6) A 100 μl aliquot of bacterial culture at OD610 0.2 were introduced to the wells with the test samples. The wells were thoroughly mixed and plates incubated overnight in a 37° C. incubator with or without 5% CO2 depending upon the bacterial species.

The test system of assay [2] is Streptococcus gordonii. Put plainly: Growth inhibition (OD610), single culture. It counts as cell-based. The conditions noted are these: Streptococcus gordonii. On the procedure: as §1, §2, §3, §4, §5, §6
Assay [3] concerns Streptococcus sobrinus. The assay can be described thus: Growth inhibition (OD610), single culture. It counts as cell-based. The conditions noted are these: Streptococcus sobrinus. The procedure: as §1, §2, §3, §4, §5, §6
Assay [4] concerns Aggregatibacter actinomycetemcomitans. The assay can be described thus: Growth inhibition (OD610), single culture. It is filed as cell-based. The conditions noted are these: Aggregatibacter actinomycetemcomitans. On the procedure: as §1, §2, §3, §4, §5, §6
The test system of assay [5] is mixed culture containing Actinomyces viscosus, Lactobacillus casei, Streptococcus oralis, Fusobacterium nucleatum and Veilonella parvula. Put plainly: Growth inhibition (OD610), mixed chemostat culture. The conditions noted are these: mixed species cultures; 1% EtOH; data not shown. It is filed as cell-based, A. viscosus, L. casei, S. oralis, F. nucleatum, V. parvula. The procedure: as §1, §2, §3
(§7) Antimicrobial characterization was also performed on mixed culture solutions having at least five microbial species present. A mixed culture containing Actinomyces viscosus (A. viscosus, A.v) (ATCC, #43146), Lactobacillus casei (L. casei, L.c) (ATCC #334), Streptococcus oralis (S. oralis, S.o) (ATCC #35037), Fusobacterium nucleatum (F. nucleatum, F.n) (ATCC #10953) and Veilonella parvula (V. parvula, V.p) (ATCC #17745) was maintained in a specialized complex medium (Modified BHI II Medium) in a continuous culture chemostat at 37° C. Approximately 10 ml of the culture was removed and the OD610 was determined. The assay was performed using cultures at two concentrations; 0.03 and 0.1 at OD610. […] Triclosan (positive control) was prepared as a 10% stock in 100% EtOH and 3 fold serial dilutions were performed in 100% EtOH. […] For Zinc Acetate, in order to mimic the 2:1 ratio (ligand:Zinc) composition as in the complex, the final concentration range from 0.7 mM to 0.0027 mM in 2% DMSO was used instead.
(§8) A 100 μl of bacterial culture at chosen OD610 (0.03 or 0.1) was introduced into the wells with the test samples. The wells were thoroughly mixed and plates incubated overnight in a 37° C. incubator with or without 5% CO2. After approximately 12-13 hours of treatment, the plate was read using Envision plate reader (Serial #1040984), absorbance at 610 nm. The % inhibition relative to control was determined as described for previously described antimicrobial protocols, supra.

A short description of assay [6]: Growth inhibition (OD610), mixed chemostat culture. It is filed as cell-based, A. viscosus, L. casei, S. oralis, F. nucleatum, V. parvula. The procedure: as §1, §2, §3, §7, §8

Turning to `Oc1cc(Cl)ccc1Oc1ccc(Cl)cc1Cl` [TCN, Triclosan], the “IC50 range over cultures tested, corresponding ppm” value in assay [1] (S. sobrinus, S. gordonii, A. actinomycetemcomitans and mixed chemostat cultures) is 0.18-2.2 ppm. Besides, the IC50 in assay [1] (read-out: concentration that inhibited 50% of the bacterial growth (IC50), range over cultures tested) is 0.61 to 7.6 µM; in assay [2] it was 6 ± 0.85 µM; in assay [3], 6 ± 1.7 µM; in assay [4], 0.61 ± 0.46 µM; in assay [6] (Mixed Species (aerobic)), 7.6 µM; in assay [6] (Mixed Species (anaerobic)), 4.8 µM. Besides, the “IC50 of positive control, range in ppm” value in assay [1] (same species of bacteria cultures (single and co-cultures), 1% EtOH) is 1-2.7 ppm; in assay [5] it was 1.4-2.2 ppm.

For the origin of these results see US10548829B2, “Oral care compositions and methods of use” (priority 2016, dated 2020).
